The results in this text go back to patent US12628802B2, “Genetically modified rat having PKHD1L1 gene with point mutation and methods for its construction, detection and use” (HUASHAN HOSPITAL AFFILIATED TO FUDAN UNIVERSITY, priority 2022, dated 2026).

The subject of experiment [1] is pyramidal neurons in the cerebral cortex. As to the kind of experiment: Patch clamp recording of sEPSC and sIPSC of cortical pyramidal neurons in brain slices. The experiment is classed as cell-based, rat. As to conditions: epilepsy group (PKHD1L1+/− rats) after H89 treatment. The text has this:
Results of Electrophysiological Examination of Transgenic Animal Brain Slices
In transgenic animals (PKHD1L1+/− rats), neuronal excitability increased, and H89 reduced the frequency of spontaneous excitatory post synaptic currents (sEPSC) in pyramidal neurons in the cerebral cortex.
A patch clamp technique was used to record sEPSC and sIPSC (e.g., spontaneous inhibitory post synaptic currents) of cortical pyramidal neurons […], and to observe the changes in excitatory synaptic transmission and inhibitory synaptic transmission of pyramidal neurons in each group of rats, so as to reflect any changes in neuronal excitability.

Experiment [2] has the same test system. As to the kind of experiment: Recording of Na+ and K+ currents in pyramidal neurons in brain slices. The format is cell-based, rat. As to conditions: control, epilepsy and epilepsy+H89 groups compared. The method, then:
Neuronal excitability is related to Na+ and K+ currents, so the Na+ and K+ currents in pyramidal neurons in the cerebral cortex of each group of rats (e.g., PKHD1L1+/− and wild-type) were recorded. As shown in FIGS. 15A-B, there was no difference in Na+ and K+ currents in pyramidal neurons of rats among all groups (3 young rats in each group, 6 cells in the control [WT] group, 6 cells in the epilepsy [e.g., PKHD1L1+/−] group, and 6 cells in the epilepsy+H89 group), […].

For experiment [3] the test system is unchanged. As to the kind of experiment: Recording of the action potential of pyramidal neurons in brain slices. The format is cell-based, rat. How it is done: H89 can reduce the excitability of pyramidal neurons in the cerebral cortex of rats with epilepsy. In order to further confirm the excitability of pyramidal neurons in the cerebral cortex, the action potential of pyramidal neurons was recorded. Action potential can intuitively reflect the excitability of neurons. […] Compared with the control group (e.g., WT rats), the positive potential of the epileptic group was decreased after H89 treatment, and the neuronal potential was increased after H89 treatment (P>0.05). There was no difference in the peak and half-duration of the action potential between the two groups. […] It was shown that a reduced neuron action potential threshold in epileptic rats indicates […] of pyramidal neurons, and H89 reversed this trend and improved epileptic symptoms in rats (FIGS. 16A-F).

Another experiment has as its system wild-type (WT) rats. As to the kind of experiment: PTZ-induced epilepsy model, wild-type rats. The format is in vivo, rat. The method, then: (§1) Subsequently, the epileptic susceptibility of PKHD1L1+/− rats was studied using a PTZ-induced epilepsy model: A total of 10 male PKHD1L1+/− rats and 10 male wild-type (WT) rats with body weights matched with age (in weeks) were selected for inducing epileptic seizures with PTZ (40 mg/kg). The dose of PTZ selected is lower than the conventional dose in such animal modeling. Only 2 out of the 10 wild-type rats (20%), but 7 out of the 10 (70%) PKHD1L1+/− rats, were induced to have grand mal seizures of grade 4-5 (see FIG. 13A).

The subject of the next experiment is PKHD1L1+/− rats. As to the kind of experiment: PTZ-induced epilepsy model, PKHD1L1+/- rats. The experiment is classed as in vivo, rat. As to conditions: PTZ 40 mg/kg. How it is done: as §1

Each structure is given as a SMILES string. “Also recorded” adds a separate entry of the source.

For `O=S(=O)(NCCNC/C=C/c1ccc(Br)cc1)c1cccc2cnccc12` [H89], in experiment [1], the sEPSC amplitude result is “decreased” and the sEPSC frequency entry is reported as “reduced; also recorded: decreased”. For the same compound, in experiment [2], the “K+ currents in pyramidal neurons” value is reported as “no difference” and the “Na+ currents in pyramidal neurons” value was “no difference”. For the same compound, in experiment [3] (between groups), the “half-duration of the action potential” value was “no difference” and the “peak of the action potential” value is given as “no difference”. In experiment [3] (epilepsy group after H89 treatment, P<0.05), the action potential threshold result is reported as “increased”. Moreover, in experiment [3] (epilepsy group after H89 treatment, P>0.05), the “positive post-potential (neuronal potential) of the action potential” value is on record as “increased”.
For the compound `C1CCc2nnnn2CC1` [PTZ, pentylenetetrazole], the “rats induced to have grand mal seizures of grade 4-5” value in the experiment with wild-type (WT) rats (PTZ 40 mg/kg, 10 male wild-type rats) turned out to be 20%; in the experiment on PKHD1L1+/− rats (10 male PKHD1L1+/− rats), 70%. In addition, in the experiment with wild-type (WT) rats (additional 5 mg/kg at 15-minute intervals, wild-type rats compared with PKHD1L1+/− rats), the “mean dose of PTZ required to exhibit grade 4-5 seizures” value is “statistically significantly higher”. In the experiment on PKHD1L1+/− rats (PKHD1L1+/− rats compared with wild-type rats), the “maximum seizure level reached” value is reported as “significantly higher”.
